# Key:
# EGFR (human) [1] = biological target: EGFR (human) (UniProt P00533)
# EGFR = EGFR (UniProt P00533)
# EGFR (human) [2] = biological target: EGFR (human) (UniProt P00533); conditions: a2780ddp
# EGFR (human) [3] = biological target: EGFR (human) (UniProt P00533); conditions: sw-620
# EGFR (human) [4] = biological target: EGFR (human) (UniProt P00533); conditions: mcf-7
# EGFR (human) [5] = biological target: EGFR (human) (UniProt P00533); conditions: mb435
# EGFR (human) [6] = biological target: EGFR (human) (UniProt P00533); conditions: lox
# EGFR (human) [7] = biological target: EGFR (human) (UniProt P00533); conditions: a431
# EGFR (human) [8] = biological target: EGFR (human) (UniProt P00533); conditions: skbr3
# EGFR (human) [9] = biological target: EGFR (human) (UniProt P00533); conditions: a2780s
# EGFR, sequence (P00533 whole entry, looked up): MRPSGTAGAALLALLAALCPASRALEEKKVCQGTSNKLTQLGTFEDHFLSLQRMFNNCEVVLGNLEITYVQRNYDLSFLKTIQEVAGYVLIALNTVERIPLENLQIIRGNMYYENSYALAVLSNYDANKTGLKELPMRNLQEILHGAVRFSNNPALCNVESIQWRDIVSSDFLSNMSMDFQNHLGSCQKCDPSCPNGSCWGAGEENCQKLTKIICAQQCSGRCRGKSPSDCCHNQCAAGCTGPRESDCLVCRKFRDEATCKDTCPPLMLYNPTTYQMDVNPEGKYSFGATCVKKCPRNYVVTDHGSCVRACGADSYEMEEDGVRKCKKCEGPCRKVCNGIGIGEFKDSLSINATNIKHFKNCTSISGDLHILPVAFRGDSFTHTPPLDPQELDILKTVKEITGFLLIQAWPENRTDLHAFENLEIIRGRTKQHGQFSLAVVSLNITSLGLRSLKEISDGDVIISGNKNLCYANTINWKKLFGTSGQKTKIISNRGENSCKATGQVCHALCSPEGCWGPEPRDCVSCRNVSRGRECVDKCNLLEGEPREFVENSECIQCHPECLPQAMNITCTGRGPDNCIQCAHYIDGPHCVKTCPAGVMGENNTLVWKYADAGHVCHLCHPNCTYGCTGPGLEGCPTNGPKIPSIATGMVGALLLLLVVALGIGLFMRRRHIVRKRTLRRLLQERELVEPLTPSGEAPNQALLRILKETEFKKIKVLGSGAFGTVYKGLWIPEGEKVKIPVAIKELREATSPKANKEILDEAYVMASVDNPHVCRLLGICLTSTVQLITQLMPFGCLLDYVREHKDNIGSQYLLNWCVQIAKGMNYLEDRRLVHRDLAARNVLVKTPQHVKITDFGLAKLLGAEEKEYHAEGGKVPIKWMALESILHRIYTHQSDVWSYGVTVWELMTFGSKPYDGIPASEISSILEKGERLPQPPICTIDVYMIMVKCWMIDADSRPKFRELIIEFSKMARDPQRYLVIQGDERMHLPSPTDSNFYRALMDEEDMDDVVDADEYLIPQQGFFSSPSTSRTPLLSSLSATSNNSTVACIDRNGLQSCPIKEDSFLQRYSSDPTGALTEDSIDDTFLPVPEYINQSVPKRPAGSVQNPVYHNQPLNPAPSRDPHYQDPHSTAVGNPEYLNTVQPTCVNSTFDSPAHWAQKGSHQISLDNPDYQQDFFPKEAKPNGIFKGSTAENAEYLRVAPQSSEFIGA
# EGFR (human), sequence (P00533 whole entry, looked up): as above
IC50 (EGFR (human) [1]),IC50 (EGFR),IC50 (EGFR (human) [2]),IC50 (EGFR (human) [3]),IC50 (EGFR (human) [4]),IC50 (EGFR (human) [5]),IC50 (EGFR (human) [6]),IC50 (EGFR (human) [7]),IC50 (EGFR (human) [8]),IC50 (EGFR (human) [9]),SMILES
0.84 nM,–,–,–,–,–,–,–,–,–,CSSC(C)C(=O)Nc1ccc2ncnc(Nc3cccc(Br)c3)c2c1 (centres undefined)
–,0.01 nM,–,–,–,–,–,–,–,–,O=C(/C=C/CBr)Nc1ccc2ncnc(Nc3cccc(Br)c3)c2c1
–,0.075 nM,43 µg/mL,52 µg/mL,59 µg/mL,45 µg/mL,46 µg/mL,0.01 µg/mL,< 0.01 µg/mL,22 µg/mL,CCN(CC)C/C=C/C(=O)Nc1ccc2ncnc(Nc3cccc(Br)c3)c2c1
–,0.005 nM,4 µg/mL,5.5 µg/mL,17 µg/mL,4.5 µg/mL,3.9 µg/mL,0.6 µg/mL,–,0.8 µg/mL,C=C(CN1CCOCC1)C(=O)Nc1ccc2ncnc(Nc3cccc(Br)c3)c2c1

# Source: the Kinase Knowledgebase extract (Sharma et al. 2016)
